Source: patent publication US11566007B2, “Ras inhibitors” (Revolution Medicines, Inc., priority 2019, dated 2023)
Where two headings read alike, the source gives them in different places.

Columns and labels:
KRAS G12S = KRAS G12S (Homo sapiens (Human), UniProt P01116+P62937, G12S); assay: Ras-Raf (BRAF RBD) disruption / FRET / MOA assay, KRAS G12S; format: biochemical; details: Ras-Raf disruption/FRET/MOA assay; class symbols; read-out: KRAS G12S FRET data IC50
Procedure, shortened: (§1)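 Compound-driven ternary complex of nucleotide-loaded Ras with cyclophilin A, disrupting BRAF RBD binding. 10-point 3-fold dilution from 30 μM final, 3 h at 25° C, then anti-His Eu-W1024 (10 nM) and anti-GST allophycocyanin (50 nM) for 1.5 h. IC50 from TR-FRET ratio decrease versus DMSO.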

[1] = tested on: NCI-H358 cells (K-Ras G12C); assay: Potency assay: pERK in NCI-H358 cells; format: cell-based, human; details: Homo sapiens, NCI-H358; H358 KRAS G12C; read-out: pERK EC50
Procedure, shortened: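 4 h cpd, 37 °C; 10-pt 3-fold series, 10 mM DMSO top stock, duplicates. Readout pERK: AlphaLISA SureFire Ultra or In-Cell Western (IR-800CW secondary, DRAQ5 DNA stain). IC50, 4-PL fit vs log conc.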

KRAS G12V = KRAS G12V (Homo sapiens (Human), UniProt P01116+P62937, G12V); assay: Ras-Raf (BRAF RBD) disruption / FRET / MOA assay, KRAS G12V; format: biochemical; details: read-out: IC50* KRAS G12V FRET data
Procedure, shortened: as §1

KRAS G13D = KRAS G13D (Homo sapiens (Human), UniProt P01116+P62937, G13D); assay: Ras-Raf (BRAF RBD) disruption / FRET / MOA assay, KRAS G13D; format: biochemical; details: read-out: IC50* KRAS G13D FRET data
Procedure, shortened: as §1

NRAS G12C = NRAS G12C (Homo sapiens (Human), UniProt P01111+P62937, G12C); assay: Ras-Raf (BRAF RBD) disruption / FRET / MOA assay, NRAS G12C; format: biochemical; details: read-out: IC50* NRAS G12C FRET data
Procedure, shortened: as §1

KRAS G12D = KRAS G12D (Homo sapiens (Human), UniProt P01116+P62937, G12D); assay: Ras-Raf (BRAF RBD) disruption / FRET / MOA assay, KRAS G12D; format: biochemical; details: Ras-Raf disruption/FRET/MOA assay; class symbols; read-out: KRAS G12D FRET data IC50
Procedure, shortened: as §1

KRAS WT = KRAS WT (Homo sapiens (Human), UniProt P01116+P62937); assay: Ras-Raf (BRAF RBD) disruption / FRET / MOA assay, KRAS WT; format: biochemical; details: read-out: IC50* KRAS WT FRET data
Procedure, shortened: as §1

NCI-H358 (K-Ras G12C) = assay: CellTiter-Glo cell viability assay, NCI-H358; format: cell-based, human; details: NCI-H358, 5-day treatment, class symbols, read-out: Additional H358 Cell Viability assay data (K-Ras G12C, IC50)
Procedure, shortened: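 Viability of K-Ras mutant lines is measured by ATP luminescence after five days of compound treatment. Percent of DMSO control is calculated and dose-response data are fitted with a four-parameter logistic equation.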

K-Ras G13C = K-Ras G13C (Homo sapiens (Human), UniProt P01116+P62937, G13C); assay: Ras-Raf (BRAF RBD) disruption / FRET / MOA assay, KRAS G13C; format: biochemical; details: KRAS G13C; Ras-Raf disruption/FRET/MOA assay; read-out: IC50* KRAS G13C FRET data
Procedure, shortened: as §1

K-Ras G12C = K-Ras G12C (Homo sapiens (Human), UniProt P01116+P62937, G12C); assay: Ras-Raf (BRAF RBD) disruption / FRET / MOA assay, KRAS G12C; format: biochemical; details: KRAS G12C; Ras-Raf disruption/FRET/MOA assay; read-out: IC50* KRAS G12C FRET data
Procedure, shortened: as §1

K-Ras G12C, sequence (P01116-2 other isoform, or with tags, fused parts or gaps G12C): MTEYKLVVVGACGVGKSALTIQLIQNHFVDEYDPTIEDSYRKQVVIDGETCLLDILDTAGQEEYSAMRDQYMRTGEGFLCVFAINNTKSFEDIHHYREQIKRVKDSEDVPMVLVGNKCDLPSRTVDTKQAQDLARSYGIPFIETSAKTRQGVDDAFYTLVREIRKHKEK
K-Ras G12C, sequence (P62937 whole entry): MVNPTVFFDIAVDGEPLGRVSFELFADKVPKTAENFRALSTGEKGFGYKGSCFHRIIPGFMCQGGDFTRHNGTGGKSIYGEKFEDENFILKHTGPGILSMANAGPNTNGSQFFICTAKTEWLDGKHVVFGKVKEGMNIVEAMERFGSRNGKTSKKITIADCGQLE
KRAS G13D, sequence (P01116-2 other isoform, or with tags, fused parts or gaps G13D): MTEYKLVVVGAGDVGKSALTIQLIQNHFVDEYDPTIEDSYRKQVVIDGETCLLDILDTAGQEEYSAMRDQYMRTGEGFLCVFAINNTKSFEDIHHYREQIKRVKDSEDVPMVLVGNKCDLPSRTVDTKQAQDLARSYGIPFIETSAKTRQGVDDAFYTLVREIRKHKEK
KRAS G13D, sequence (P62937 whole entry): as the sequence (P62937 whole entry) above
NRAS G12C, sequence (P01111 whole entry G12C): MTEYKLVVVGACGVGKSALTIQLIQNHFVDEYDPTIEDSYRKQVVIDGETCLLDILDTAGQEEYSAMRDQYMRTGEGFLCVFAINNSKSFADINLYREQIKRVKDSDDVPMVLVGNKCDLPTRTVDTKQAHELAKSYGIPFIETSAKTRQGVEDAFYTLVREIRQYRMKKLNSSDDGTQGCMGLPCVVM
NRAS G12C, sequence (P62937 whole entry): as the sequence (P62937 whole entry) above
K-Ras G13C, sequence (P01116-2 other isoform, or with tags, fused parts or gaps G13C): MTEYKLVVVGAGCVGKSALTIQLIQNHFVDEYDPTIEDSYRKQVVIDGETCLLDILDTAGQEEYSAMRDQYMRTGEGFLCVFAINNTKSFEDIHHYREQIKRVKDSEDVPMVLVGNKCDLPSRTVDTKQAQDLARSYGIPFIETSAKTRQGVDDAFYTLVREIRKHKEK
K-Ras G13C, sequence (P62937 whole entry): as the sequence (P62937 whole entry) above
KRAS G12D, sequence (P01116-2 other isoform, or with tags, fused parts or gaps G12D): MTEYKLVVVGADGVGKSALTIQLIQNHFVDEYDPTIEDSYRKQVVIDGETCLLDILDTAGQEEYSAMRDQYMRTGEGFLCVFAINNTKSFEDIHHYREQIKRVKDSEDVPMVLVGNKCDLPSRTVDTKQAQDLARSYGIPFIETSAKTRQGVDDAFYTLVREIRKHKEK
KRAS G12D, sequence (P62937 whole entry): as the sequence (P62937 whole entry) above
KRAS WT, sequence (P01116-2 other isoform, or with tags, fused parts or gaps): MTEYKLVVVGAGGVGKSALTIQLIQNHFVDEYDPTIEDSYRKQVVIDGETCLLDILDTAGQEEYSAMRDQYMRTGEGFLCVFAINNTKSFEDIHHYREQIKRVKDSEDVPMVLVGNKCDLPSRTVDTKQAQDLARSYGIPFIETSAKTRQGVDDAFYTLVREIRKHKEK
KRAS WT, sequence (P62937 whole entry): as the sequence (P62937 whole entry) above
KRAS G12S, sequence (P01116-2 other isoform, or with tags, fused parts or gaps G12S): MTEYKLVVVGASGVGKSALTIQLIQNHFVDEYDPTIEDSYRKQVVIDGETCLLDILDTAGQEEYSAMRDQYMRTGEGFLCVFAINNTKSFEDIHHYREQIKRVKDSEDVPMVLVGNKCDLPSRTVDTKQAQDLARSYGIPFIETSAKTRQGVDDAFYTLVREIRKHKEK
KRAS G12S, sequence (P62937 whole entry): as the sequence (P62937 whole entry) above
KRAS G12V, sequence (P01116-2 other isoform, or with tags, fused parts or gaps G12V): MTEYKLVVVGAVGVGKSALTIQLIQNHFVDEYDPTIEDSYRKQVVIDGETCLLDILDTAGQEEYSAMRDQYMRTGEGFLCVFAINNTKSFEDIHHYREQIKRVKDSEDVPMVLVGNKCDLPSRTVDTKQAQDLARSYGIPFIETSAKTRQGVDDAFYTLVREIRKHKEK
KRAS G12V, sequence (P62937 whole entry): as the sequence (P62937 whole entry) above

| IC50 (NCI-H358 (K-Ras G12C)) [µM] | SMILES | IC50 (KRAS G12S) [µM] | EC50 [1] [µM] | IC50 (KRAS G12V) [µM] | IC50 (KRAS G13D) [µM] | IC50 (NRAS G12C) [µM] | IC50 (KRAS G12D) [µM] | IC50 (KRAS WT) [µM] | IC50 (NCI-H358 (K-Ras G12C); Homo sapiens, NCI-H358, 120 h) [µM] | IC50 (K-Ras G13C) [µM] | IC50 (K-Ras G12C) [µM] |
| --- | --- | --- | --- | --- | --- | --- | --- | --- | --- | --- | --- |
|  | C#CC(=O)N1CC[C@H](C(=O)N(C)[C@H](C(=O)N[C@H]2Cc3cc(O)cc(c3)-c3ccc4c(c3)c(c(-c3cnccc3[C@H](C)OC)n4CC)CC(C)(C)COC(=O)[C@@H]3CCCN(N3)C2=O)C(C)C)C1 [Example A150] | 0.1 to 1 | < 5 | 0.1 to 1 | 0.1 to 1 | 0.01 to 0.1 | 1 to 10 | 0.1 to 1 | < 0.01 | 0.01 to 0.1 | 0.01 to 0.1 |
|  | CCn1c(-c2cccnc2)c2c3cc(ccc31)-c1cccc(c1)C[C@H](NC(=O)[C@H](C(C)C)N(C)C(=O)[C@H]1CCN(C(=O)C#CCN(C)C)C1)C(=O)N1CCC[C@H](N1)C(=O)OCC(C)(C)C2 [Example A152] | > 10 | < 5 | 1 to 10 | 1 to 10 | 0.01 to 0.1 | 1 to 10 | 1 to 10 | 0.01 to 0.1 | 1 to 10 | 0.01 to 0.1 |
|  | CCn1c(-c2cnccc2COC)c2c3cc(ccc31)-c1cc(O)cc(c1)C[C@H](NC(=O)[C@H](C(C)C)N(C)C(=O)[C@H]1CCN(C(=O)C(C)(C)N(C)C)C1)C(=O)N1CCC[C@H](N1)C(=O)OCC(C)(C)C2 [Example A153] | 0.1 to 1 | < 5 | 0.1 to 1 | 0.1 to 1 | 0.01 to 0.1 | 0.1 to 1 | 0.1 to 1 | 0.1 to 1 | 0.1 to 1 | 0.01 to 0.1 |
|  | C=CC(=O)N1CC[C@H](C(=O)N(C)[C@H](C(=O)N[C@H]2Cc3cc(O)cc(c3)-c3ccc4c(c3)c(c(-c3cn(C)nc3[C@H](C)OC)n4CC)CC(C)(C)COC(=O)[C@@H]3CCCN(N3)C2=O)C(C)C)C1 [Example A154] | 0.1 to 1 | < 5 | 0.1 to 1 | 1 to 10 | 0.01 to 0.1 | 1 to 10 | 1 to 10 | 0.01 to 0.1 | 1 to 10 | 0.01 to 0.1 |
|  | CCn1c(-c2cccnc2COC)c2c3cc(ccc31)-c1cc(C)cc(c1)C[C@H](NC(=O)[C@H](C(C)C)N(C)C(=O)[C@H]1CCN(C(=O)C#CCN(C)C)C1)C(=O)N1CCC[C@H](N1)C(=O)OCC(C)(C)C2 [Example A156] | > 10 | < 5 | > 10 | 1 to 10 | 0.1 to 1 | 1 to 10 | > 10 | 0.01 to 0.1 | 1 to 10 | 0.01 to 0.1 |
|  | C=CC(=O)N1C[C@@H](C(=O)N(C)[C@H](C(=O)N[C@H]2Cc3cc(O)cc(c3)-c3ccc4c(c3)c(c(-c3cccnc3COC)n4CC)CC(C)(C)COC(=O)[C@@H]3CCCN(N3)C2=O)C(C)C)C[C@H]1C [Example A158] | 0.1 to 1 | < 5 | 1 to 10 | 0.1 to 1 | 0.01 to 0.1 | > 10 | 0.1 to 1 | 0.01 to 0.1 | 0.1 to 1 | 0.01 to 0.1 |
|  | C=CC(=O)N1C[C@@H](C(=O)N(C)[C@@H](C(=O)N[C@H]2Cc3cc(O)cc(c3)-c3ccc4c(c3)c(c(-c3cccnc3COC)n4CC)CC(C)(C)COC(=O)[C@@H]3CCCN(N3)C2=O)C(C)C)C[C@H]1C [Example A159] | 1 to 10 | < 5 | 1 to 10 | 1 to 10 | 0.1 to 1 | > 10 | 1 to 10 | 0.1 to 1 | > 10 | 0.1 to 1 |
|  | CCn1c(-c2cccnc2COC)c2c3cc(ccc31)-c1cc(O)cc(c1)C[C@H](NC(=O)[C@H](C(C)C)N(C)C(=O)[C@@H]1CCN(C(=O)C#CC(C)(C)N(C)C)C1)C(=O)N1CCC[C@H](N1)C(=O)OCC(C)(C)C2 [Example A162] | 1 to 10 | < 5 | 0.1 to 1 | 1 to 10 | < 0.01 | 1 to 10 | 1 to 10 | < 0.01 | 0.1 to 1 | < 0.01 |
| 0.1 to 1 | CCn1c(-c2cccnc2COC)c2c3cc(ccc31)-c1cc(O)cc(c1)C[C@H](NC(=O)[C@H](C(C)C)N(C)C(=O)[C@H]1CCC(C(=O)/C=C\CN(C)C)C1)C(=O)N1CCC[C@H](N1)C(=O)OCC(C)(C)C2 (stereo partly shown) [Example A164] | 0.1 to 1 | < 5 | 0.1 to 1 | 0.1 to 1 | 0.01 to 0.1 | 1 to 10 | 0.1 to 1 |  | 0.1 to 1 | 0.01 to 0.1 |
|  | CCn1c(-c2cccnc2COC)c2c3cc(ccc31)-c1cc(O)cc(c1)C[C@H](NC(=O)[C@@H](C(C)C)N(C)C(=O)[C@H]1C[C@@H](C)N(C(=O)C#CCN(C)C)C1)C(=O)N1CCC[C@H](N1)C(=O)OCC(C)(C)C2 [Example A165] | > 10 | < 5 | > 10 | > 10 | 0.01 to 0.1 | > 10 | > 10 | 0.01 to 0.1 | 0.1 to 1 | 0.01 to 0.1 |
|  | CC#CC(=O)N1CC[C@@H](C(=O)N(C)[C@H](C(=O)N[C@H]2Cc3cc(O)cc(c3)-c3ccc4c(c3)c(c(-c3cncnc3)n4CC)CC(C)(C)COC(=O)[C@@H]3CCCN(N3)C2=O)C(C)C)C1 [Example A169] | 1 to 10 | < 5 | 1 to 10 | > 10 | 0.1 to 1 | > 10 | 1 to 10 | 0.1 to 1 | 1 to 10 | 0.1 to 1 |
|  | CCn1c(-c2cccnc2COC)c2c3cc(ccc31)-c1cc(O)cc(c1)C[C@H](NC(=O)[C@H](C(C)C)N(C)C(=O)[C@H]1C[C@@H](C)N(C(=O)C#CCN(C)C)C1)C(=O)N1CCC[C@H](N1)C(=O)OCC(C)(C)C2 [Example A175] | 1 to 10 | < 5 | 1 to 10 | 1 to 10 | < 0.01 | 1 to 10 | 1 to 10 | < 0.01 | < 0.01 | < 0.01 |
|  | CCn1c(-c2cncnc2)c2c3cc(ccc31)-c1cc(O)cc(c1)C[C@H](NC(=O)[C@H](C(C)C)N(C)C(=O)[C@H]1CCN(C(=O)C#CCN3CCOCC3)C1)C(=O)N1CCC[C@H](N1)C(=O)OCC(C)(C)C2 [Example A176] | 1 to 10 | < 5 | 1 to 10 | > 10 | < 0.01 | > 10 | > 10 | 0.01 to 0.1 | 1 to 10 | < 0.01 |
|  | CCn1c(-c2cncnc2)c2c3cc(ccc31)-c1csc(n1)C[C@H](NC(=O)[C@H](C(C)C)N(C)C(=O)[C@H]1CCN(C(=O)C#CCN3CCOCC3)C1)C(=O)N1CCC[C@H](N1)C(=O)OCC(C)(C)C2 [Example A177] | > 10 | < 5 | > 10 | > 10 | 0.1 to 1 | > 10 | > 10 | 0.1 to 1 | > 10 | 0.1 to 1 |
|  | C/C=C(\C#N)C(=O)N1CC[C@H](C(=O)N(C)[C@H](C(=O)N[C@H]2Cc3cc(O)cc(c3)-c3ccc4c(c3)c(c(-c3cccnc3COC)n4CC)CC(C)(C)COC(=O)[C@@H]3CCCN(N3)C2=O)C(C)C)C1 [Example A178] | 0.1 to 1 | < 5 | 0.1 to 1 | 1 to 10 | 0.01 to 0.1 | 1 to 10 | 1 to 10 | > 1 | 0.01 to 0.1 | 0.01 to 0.1 |
|  | C=CC(=O)N1CC[C@@H](C(=O)N(C)[C@H](C(=O)N[C@H]2Cc3cc(O)cc(c3)-c3ccc4c(c3)c(c(-c3cncnc3)n4CC)CC(C)(C)COC(=O)[C@@H]3CCCN(N3)C2=O)C(C)C)O1 [Example A179] | 1 to 10 | < 5 | 1 to 10 | 1 to 10 | 0.01 to 0.1 | 1 to 10 | 1 to 10 | > 1 | 0.1 to 1 | 0.01 to 0.1 |
